# Measured values taken from patent US10976312B2, “Compositions and methods for capture of cellular targets of bioactive agents” (Promega Corporation, priority 2012, dated 2021).
# Key:
# Type in all cases: cell-based
# NANOLUC-DHFR fusion [1] = molecular target: T1, NANOLUC-DHFR fusion (Homo sapiens, UniProt P00374); assay: Binding affinity to DHFR in live cells using BRET; conditions: HEK293 live cells, 1 μM PBI-4890 tracer, 2 h
# T1 construct: expressed in transfected cells; host or cells: HEK293
# T1 sequence (P00374 1-187): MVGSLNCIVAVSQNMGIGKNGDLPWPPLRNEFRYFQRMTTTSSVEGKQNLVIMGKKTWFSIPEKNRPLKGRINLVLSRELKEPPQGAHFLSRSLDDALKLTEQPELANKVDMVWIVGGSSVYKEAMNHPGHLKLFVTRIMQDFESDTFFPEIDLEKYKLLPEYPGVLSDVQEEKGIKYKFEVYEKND
# Experimental: Binding affinity to DHFR in live cells was tested using BRET. HEK293 cells in wells of a 96-well plate were transfected using PEI with plasmid DNA encoding a NANOLUC-DHFR fusion. The DNA was diluted 1:50 with a promoterless carrier DNA plasmid (PSI) to a final concentration of 80 ng total DNA per well. Twenty-four hours post-transfection, cells were serum starved for additional 24 hours and then treated with serially diluted PBI-4848 or PBI-5015 in the presence of 1 μM PBI-4890 (TOM-methotrexate derivative). After two hours of equilibrium binding, furimazine (a coelenterazine derivative; Promega Corp.) was added to a final concentration of 20 μM, and BRET measured on a Varioskan luminometer.
# NANOLUC-DHFR fusion [2] = molecular target: T1, NANOLUC-DHFR fusion; assay: Pull-down of NANOLUC:DHFR from live HEK293 cells onto HALOTAG protein beads; conditions: 10 μM conjugate, release with 150 μM methotrexate
# Experimental: The DNA was diluted 1:50 with a promoterless carrier DNA plasmid (PSI) to a final concentration of 80 ng total DNA per well. Twenty-four hours post-transfection, cells were serum starved for additional 24 h and then incubated with 10 μM PBI-4848 or PBI-5015 while control cells were not treated with the conjugated drug. Following equilibration binding of 2 h, the media was removed, and the cells quickly washed with PBS and lysed in detergent-based lysis buffer for 10 min. Cell lysates were then transferred to wells of a 96-well plate containing 0.5 μl settled paramagnetic HALOTAG protein beads and incubated with shaking for 45 min. Following binding, the unbound fraction was removed, the HALOTAG protein paramagnetic beads washed, 150 μM unconjugated methotrexate added, and the captured NANOLUC:DHFR specifically released from the beads by competition with the unconjugated methotrexate for 60 min. The released NANOLUC:DHFR (+PBI5015 or +PBI 4848) and control samples were detected by NANOGLO luciferase detection reagent.
# DHFR = molecular target: T2, DHFR (Homo sapiens, UniProt P00374); assay: Endogenous target pull-down from HEK293 cells, western blot and mass spec (Example 7); conditions: 10 uM conjugate, listed as Methotrexate-CA
# T2 construct: isolate, e.g., pull-down, endogenous targets from cells; endogenous in cells; host or cells: HEK293
# T2 sequence (P00374 1-187): T1 sequence (P00374 1-187)
# Experimental: HEK293 cells were plated into wells of a 6-well plate (2.5×10^5 cells/well). 48 hours post plating, a final concentration of 10 uM of Methotrexate chloroalkane (PBI-5015) was added to 2 wells while control cells were not treated with the drug conjugate. Following equilibrium binding for 2 h, the media was removed, and the cells quickly washed with PBS and lysed in detergent-based lysis buffer for 10 min. Cell lysates were then transferred to an Eppendorf® tube containing 12.5 ul of settled paramagnetic HALOTAG protein beads and incubated with shaking for 15 min. Following binding, the unbound fraction was removed, the HALOTAG paramagnetic beads washed 3×, and the captured targets specifically released from the beads by competition with 150 μM unconjugated methotrexate for 60 mins. The released targets were subjected to mass spec analysis as well as western blot analysis using an anti-DHFR antibody (Sigma).
# [3] = tested on: intracellular HDAC activity; assay: Intracellular HDAC activity, non-lytic HDAC-Glo I/II assay, HEK293 and K562 cells (Example 10); conditions: 2 hours treatment, relative to SAHA
# Experimental: HEK293 cells were plated in a 96-well plate at 1×10^5 cell/ml in DMEM+10% serum, and 24 hours later, the media was replaced with serum free DMEM media. K562 cells were plated in serum free RPMI 1640 media into wells of a 96-well plate at 2×10^5 cells/ml. Cells were treated with serial dilutions of SAHA or PBI-5040 (SAHA-chloroalkane) for 2 hours and then tested for intracellular HDAC activity using the non-lytic HDAC-Glo™ I/II assay (Promega Corporation) according to manufacturer's instructions. […] The ˜2-fold reduction in SAHA potency due to the chloroalkane modification indicates minimal impact of the chloroalkane on cellular permeability or potency.
# [4] = tested on: intracellular HDAC activity; assay: Intracellular HDAC activity, non-lytic HDAC-Glo I/II assay, K562 cells (Example 12); conditions: 2 hours treatment
# Experimental: K562 cells were plated in serum free RPMI 1640 media into wells of a 96-well plate at 2×10^5 cells/ml. Cells were then treated with serial dilution of SAHA, PBI-5040 (SAHA-chloroalkane) or PBI 5475 (SAHA-biotin) for 2 hours and then tested for intracellular HDAC activity using the non-lytic HDAC-Glo™ I/II assay (Promega Corporation) according to manufacturer's instructions.
# [5] = tested on: HDAC1, HDAC2, HDAC3, HDAC6, HDAC8; assay: Endogenous target pull-down from HEK293 cells, western blot and mass spec (Example 11); conditions: 20 uM conjugate
# Experimental: HEK293 cells were plated in 100 mm dishes at 2×10^5 cells/ml. Forty-eight hours post plating, a final concentration of 20 uM SAHA-chloroalkane (PBI-5040) was added to 3 of the dishes (1×10^7 cells/dish), while 3 other dishes were not treated with the conjugated drug (control). Following equilibrium binding for 2 hours, the media was removed, the cells quickly washed with PBS, lysed in a detergent-based lysis buffer for 10 minutes and centrifuged at 3000×g for 1 minute. The cleared lysates were than added to 75 ul of settled paramagnetic HALOTAG beads and incubated with shaking for 15 minutes. Following binding, the unbound fraction was removed, the HALOTAG paramagnetic beads were washed 3× (wash buffer—50 mM HEPES pH7.5, 150 mM NaCl and 0.01% IGEPAL), and the captured targets specifically released from the beads by competition with 400 μM unconjugated SAHA for 60 minutes. The released targets were subjected to mass spec analysis (FIG. 11B) as well as western blot analysis (FIG. 1-A) with anti HDAC1 antibody (ABCAM); anti HDAC2 antibody (ABCAM); anti HDAC6 antibody (Millipore); anti HDAC3 antibody (Thermo Fisher) and anti HDAC8 antibody (Rockland/Promega).
# [6] = tested on: HDAC1, HDAC2, HDAC3, HDAC6, HDAC8; assay: Endogenous target pull-down from K562 cells, western blot (Example 13); conditions: 20 uM conjugate
# Experimental: K562 cells were plated in 150 mm dishes at 5×10^7 cells/dish. A final concentration of 20 uM SAHA chloroalkane (PBI-5040) or PBI-5475 (SAHA-biotin) was added to 2 dishes of cells while 2 other dishes of cells were not treated with the conjugated drug (control). Following equilibrium binding of 2 hours, the media was removed, the cells quickly washed with PBS and lysed in detergent-based lysis buffer for 10 minutes and centrifuged at 3000×g for 1 minute. The cleared lysates treated with PBI-5040, as well as the cleared lysates of the control cells, were added to 75 ul of settled paramagnetic HALTOG beads. The cleared lysates of the cells treated with PBI-5475, as well as the cleared lysate of the control cells, were added to 75 ul of settled paramagnetic Streptavidin beads (GE). Following 15 minutes of binding, the unbound fraction was removed, beads were washed 3×, and the captured targets specifically released from the beads by competition with 400 μM unconjugated SAHA for 60 minutes. The released targets were subjected to western blot analysis (FIG. 13) with anti HDAC1 antibody (ABCAM); anti HDAC2 antibody (ABCAM); anti HDAC6 antibody (Millipore); anti HDAC3 antibody (Thermo Fisher) and anti HDAC8 antibody (Rockland/Promega).
affinity to DHFR (dose-response BRET curves) (NANOLUC-DHFR fusion [1]),pull-down of endogenous DHFR (DHFR),SMILES,pull-down of Nluc:DHFR fusion (NANOLUC-DHFR fusion [2]),reduction in SAHA potency due to the chloroalkane modification [3] [fold],reduction in potency relative to SAHA [4] [fold],pull-down of endogenous SAHA targets (HDACs) [5],pull-down of endogenous SAHA targets (HDACs) ([5]; listed as SAHA-CA),pull-down of endogenous SAHA targets (HDACs) ([6]; listed as SAHA-CA),pull-down of endogenous SAHA targets (HDACs) ([6]; listed as SAHA-chloroalkane)
higher affinity to DHFR,–,CN(Cc1cnc2nc(N)nc(N)c2n1)c1ccc(C(=O)NC(CCC(=O)NCCOCCOCCCCCCCl)C(=O)O)cc1 (stereo not shown) [PBI-4848],–,–,–,–,–,–,–
lower affinity to DHFR,specific pull down of DHFR,CN(Cc1cnc2nc(N)nc(N)c2n1)c1ccc(C(=O)NC(CCC(=O)NCCCCCNC(=O)OCCOCCOCCOC(=O)NCCOCCOCCCCCCCl)C(=O)O)cc1 (stereo not shown) [PBI-5015],efficiently pulled down the Nluc:DHFR fusion,–,–,–,–,–,–
–,–,O=C(CCCCCCC(=O)Nc1ccc(CNC(=O)OCCOCCOCCOC(=O)NCCOCCOCCCCCCCl)cc1)NO [PBI-5040],–,~2,~2,"all known targets of SAHA, including low affinity target (HDAC8) and low abundance target (HDAC3), can be specifically pull down",specific pull down of all known targets,specific pull down of all known targets of SAHA,"all known targets of SAHA, including a low affinity target (HDAC8) and a low abundance target (HDAC3), were specifically pulled down"
